Measured values published in patent publication US11078182B2, “Heteroaromatic compounds as Vanin inhibitors” (Boehringer Ingelheim International GmbH, priority 2018, dated 2021).

Experiments:
[1] = target: FLAG-tagged Vanin-1 (AA 22-493, T26I) (Homo sapiens (Human), UniProt O95497, T26I); experiment: Vanin-1 enzymatic assay; assay type: biochemical; settings: 0.1 nM Vanin-1, 3 μM D-pantethine, pantothenic acid formation by RapidFire MS; geometric mean if multiple measurements; read-out: VNN 1 IC50
Procedure: The test compounds are dissolved in 100% DMSO at a concentration of 10 mM and in a first step diluted in DMSO to a concentration of 5 mM, followed by serial dilution steps in 100% DMSO. Dilution factor and number of dilution steps may vary according to needs. Typically 8 different concentrations by 1:5 dilutions are prepared, a further intermediate dilutions of the substances is carried out with assay buffer resulting in 1% final DMSO concentration in the assay.
0.1 nM of FLAG-tagged Vanin-1 (AA 22-493, T26I, produced internally) and test compounds are incubated at room temperature for 20 minutes in assay buffer (1 mM DTT, 0.0025% Brij-35, 50 mM HEPES, pH7.5). D-Pantethine (Sigma, Cat #P2125-5G) in assay buffer is added (final concentration 3 μM) and incubated for additional 30 minutes at room temperature. Total assay volume typically is 40 μl but might be adjusted according to needs. Reaction is stopped by adding equal volume of stop solution as the reaction mixture to reach 100 nM HD-pantothenic acid (as an internal standard) and 1% TFA. Assay plates are centrifuged for 2 minutes and the formation of pantothenic acid is detected by RapidFire Mass Spectrometry (mobile phase A: 0.1% formic acid and 0.01% trifluoroacetic acid in water; mobile phase B: 47.5% acetonitrile, 47.5% methanol, 0.1% formic acid and 0.01% trifluoroacetic acid in water) using a C18, 12 μL cartridge (Agilent Cat #G9205A).
The values given in Table I result from measurements of one or more samples. In case of multiple measurements the geometric mean values are given.

Pantetheinase (vanin) = experiment: Human Whole Blood assay; assay type: cell-based; settings: pantethine substrate, pantothenic acid formation by RapidFire MS, read-out: HWB IC50
Procedure: Pantetheinase (vanin) converts panteheine into pantothenic acid and cysteamine. Accordingly, in the described protocol vanin activity is quantified by formation of pantothenic acid after pantetheine supplementation via pantethine. The assay is applicable to identify vanin inhibitors. Compound stocks are dissolved in DMSO at 10 mM. Further dilutions are performed in RPMI 1640 medium (Gibco, #A-10491-01) and final concentrations in the assay are 0.032 nM-500 nM.
Human blood is drawn into a blood bag (1% heparin, 50 I.E./mL). Blood is aliquoted into cavities of 96-deep-well plates at 290 μL and mixed with 10 μL compound solution or vehicle (30 sec at 1400 rpm on a shaker). Equilibration follows at room temperature, 250 rpm and for 30 min. The assay is starts by adding 10 μL of substrate solution (20 μM pantethine in 1 mM DTT, 0.0025% Brij-35, 50 mM HEPES, pH7.5) to each well, except for some blank wells which receive […] substrate buffer (1 mM DTT, 0.0025% Brij-35, 50 mM HEPES, pH7.5) only. Samples are thoroughly shaken (30 sec, 1400 rpm) and reaction is allowed to take place at room temperature, 250 rpm and for 5 min. The reaction is stopped by addition of a vanin tool inhibitor in excess (BI-1 total conc. 10 μM). Centrifugation of the plate follows at 4° C., 665 G for 10 min. Then the blood plasma samples (100 μL) are transferred into another 96-deep-well plate and proteins are precipitated (5 min on ice) by adding 100 μL of ice cold precipitation solution (1 μM labelled pantothenic acid (di-β-alanine-13C6,15N2 calcium salt, Sigma, #705837) in acetonitrile). Afterwards the plate is centrifuged (4° C., 3220 G, 10 min) and supernatants (50 μL) are collected into another 96-deep-well plate and mixed (10 sec, 1400 rpm) with 150 μL ice cold formic acid (0.1%, Carl Roth GmbH+Co.KG, #CP03.1). The formation of pantothenic acid is detected by RapidFire Mass Spectrometry. A TripleQuad 6500+ (ABSciex, Germany) is equipped with an LC-1290 system, a RapidFire autosampler (Agilent, Germany) and a C18 cartridge Type C 12 μL (Agilent Cat #G9526-80000). Mobile phase A is consisting of 0.09% formic acid and 0.01% trifluoroacetic acid in water and mobile phase B of 0.09% formic acid and 0.01% trifluoroacetic acid in acetonitrile/methanol/water=47.5/47.5/5.

FLAG-tagged Vanin-1 (AA 22-493, T26I), sequence (O95497 22-493 T26I): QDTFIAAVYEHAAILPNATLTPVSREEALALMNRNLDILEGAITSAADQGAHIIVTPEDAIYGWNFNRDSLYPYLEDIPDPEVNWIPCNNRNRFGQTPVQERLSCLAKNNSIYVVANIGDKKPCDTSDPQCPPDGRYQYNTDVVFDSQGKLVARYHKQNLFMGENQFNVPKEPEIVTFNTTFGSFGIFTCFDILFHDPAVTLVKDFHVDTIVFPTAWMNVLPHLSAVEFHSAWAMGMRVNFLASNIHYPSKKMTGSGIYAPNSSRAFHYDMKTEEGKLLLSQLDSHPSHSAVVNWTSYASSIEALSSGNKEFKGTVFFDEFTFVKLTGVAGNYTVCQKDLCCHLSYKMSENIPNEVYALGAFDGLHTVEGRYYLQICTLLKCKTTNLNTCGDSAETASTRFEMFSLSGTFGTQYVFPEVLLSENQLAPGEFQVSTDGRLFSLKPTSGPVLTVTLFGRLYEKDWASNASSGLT

Row | Compound | IC50 [1] [nM] | IC50 (Pantetheinase (vanin)) [nM]
1 | CN(C(=O)[C@@H]1CCCO1)[C@H]1CCN(C(=O)c2ccc(NC(C)(C)C)nc2)C1 [Example 1.3] | 0.3 | 2.7
2 | CC(C)(C)Nc1ccc(C(=O)N2CC[C@H](N3CCCC3=O)C2)cn1 [Example 1.9] | 0.4 | 3.1
3 | CN(C(=O)C1CC1)[C@H]1CCN(C(=O)c2ccc(NC(C)(C)C)nc2)C1 [Example 1.5] | 0.3 | 4.2
4 | CN(C(=O)[C@H]1CCCO1)[C@H]1CCN(C(=O)c2ccc(NC(C)(C)C)nc2)C1 [Example 1.15] | 1 | –
5 | CN(C(=O)C1CC1)[C@H]1CCN(C(=O)c2ccc(NC3(C)CCC3)nc2)C1 [Example 2.1, N-Methyl-N-[(3S)-1-{6-[(1-methylcyclobutyl)amino]pyridine-3-carbonyl}pyrrolidin-3-yl]cyclopropanecarboxamide] | 0.3 | 4.6
6 | CC(C)(C)Nc1ccc(C(=O)N2CC[C@H](N3CCOC3=O)C2)cn1 [Example 1.6] | 0.3 | 4
7 | CN(C(=O)C1CCC1)[C@H]1CCN(C(=O)c2ccc(NC(C)(C)C)nc2)C1 [Example 1.1, N-[(3S)-1-[6-(tert-Butylamino)pyridine-3-carbonyl]pyrrolidin-3-yl]-N-methylcyclobutanecarboxamide] | 0.2 | 4.3
8 | CN(C(=O)CN1CCOCC1)[C@H]1CCN(C(=O)c2ccc(NC(C)(C)C)nc2)C1 [Example 1.16] | 1.3 | –
9 | CN(C(=O)c1ccc(Cl)s1)[C@H]1CCN(C(=O)c2ccc(NC(C)(C)C)nc2)C1 [Example 1.4] | 0.3 | 25.2
10 | Cc1cc(C(=O)N(C)[C@H]2CCN(C(=O)c3ccc(NC(C)(C)C)nc3)C2)[nH]n1 [Example 1.12] | 0.4 | 9.7
11 | CN(C(=O)C1CCOC1)[C@H]1CCN(C(=O)c2ccc(NC(C)(C)C)nc2)C1 (some centres unmarked) [Example 1.10] | 0.4 | –
12 | CN(C(=O)C1(C#N)CC1)[C@H]1CCN(C(=O)c2ccc(NC(C)(C)C)nc2)C1 [Example 1.8] | 0.3 | 5.8
13 | CC(C)(C)Nc1ccc(C(=O)N2CC[C@H](N3CCCCC3=O)C2)cn1 [Example 1.14] | 0.8 | 12.5
14 | CN(C(=O)c1ccc(F)cc1)[C@H]1CCN(C(=O)c2ccc(NC(C)(C)C)nc2)C1 [Example 1.11] | 0.4 | 7.5
15 | CN(C(=O)C1CC(F)(F)C1)[C@H]1CCN(C(=O)c2ccc(NC(C)(C)C)nc2)C1 [Example 1.2] | 0.2 | 3.6
16 | CN(C(=O)c1cc(C(F)(F)F)nn1C)[C@H]1CCN(C(=O)c2ccc(NC(C)(C)C)nc2)C1 [Example 1.7] | 0.3 | 5
17 | CN(c1ncccn1)[C@H]1CCN(C(=O)c2ccc(NC(C)(C)C)nc2)C1 [Example 1.13] | 0.4 | 12.6

The next lines start with the values.

Row | IC50 [1] [nM] | IC50 (Pantetheinase (vanin)) [nM] | Compound
18 | 0.3 | 3.9 | CC1(C#N)CCN(C(=O)c2ccc(NC(C)(C)C)nc2)C1 (single isomer, unassigned) [Example 7, 1-[6-(tert-Butylamino)pyridine-3-carbonyl]-3-methylpyrrolidine-3-carbonitrile]
19 | 0.2 | 3.1 | CCC(C)(C)Nc1ccc(C(=O)N2CC[C@H](N(C)C(C)=O)C2)cn1 [Example 3.2]
20 | 2.1 | – | CC(=O)N(C)[C@H]1CCN(C(=O)c2ccc(NC(C)(C)CCn3cncn3)nc2)C1 [Example 3.4]
21 | 0.7 | – | CN(C(=O)C1CC1)[C@H]1CCN(C(=O)c2ccc(NC3(C)CCCC3)nc2)C1 [Example 2.3]
22 | 7.3 | – | CN(C(=O)C1CC1)[C@H]1CCN(C(=O)c2ccc(NC3(C)CCOCC3)nc2)C1 [Example 2.5]
23 | 1.2 | – | CN1CCN(C(=O)N(C)[C@H]2CCN(C(=O)c3ccc(NC(C)(C)C)nc3)C2)CC1 [Example 4.2]
24 | 0.4 | 8.7 | CC(=O)N(C)[C@H]1CCN(C(=O)c2ccc(NC(C)(C)Cc3ccc(F)cc3)nc2)C1 [Example 3.3]
25 | 0.3 | 3.2 | CN(C(=O)N1CCOCC1)[C@H]1CCN(C(=O)c2ccc(NC(C)(C)C)nc2)C1 [Example 4.1, N-[(3S)-1-[6-(tert-Butylamino)pyridine-3-carbonyl]pyrrolidin-3-yl]-N-methylmorpholine-4-carboxamide]
26 | 0.4 | 9.2 | CN(C(=O)C1CC1)[C@H]1CCN(C(=O)c2ccc(NC34CC(C3)C4)nc2)C1 [Example 2.6]
27 | 0.5 | 3.2 | CC(=O)N(C)[C@H]1CCN(C(=O)c2ccc(NC(C)(C)C)nc2)C1 [Example 5.1, N-[(3S)-1-[6-(tert-Butylamino)pyridine-3-carbonyl]pyrrolidin-3-yl]-N-methylacetamide]
28 | 0.4 | 7.7 | CC(=O)N(C)[C@H]1CCN(C(=O)c2ccc(NC(C)(C)C(C)C)nc2)C1 [Example 2.2]
29 | 1.7 | – | CC1(Nc2ccc(C(=O)N3CC[C@H](N4CCCC4=O)C3)cn2)CCCCC1 [Example 2.4]
30 | 0.3 | 2.7 | CC(C)(C)Nc1ccc(C(=O)N2CC(C)(c3ccccn3)C2)cn1 [Example 8, N-tert-Butyl-5-[3-methyl-3-(pyridin-2-yl)azetidine-1-carbonyl]pyridin-2-amine]
31 | 1.6 | – | CC1CN([C@H]2CCN(C(=O)c3ccc(NC(C)(C)C)nc3)C2)C(=O)O1 (stereo partly drawn) [Example 6, 3-[(3S)-1-[6-(tert-Butylamino)pyridine-3-carbonyl]pyrrolidin-3-yl]-5-methyl-1,3-oxazolidin-2-one]
32 | – | 267 | CC(=O)N(C)[C@@H]1CCN(C(=O)c2ccc(NC(C)(C)C)nc2)C1 [Example 5.2]
33 | 0.2 | 1.6 | CC(=O)N(C)[C@H]1CCN(C(=O)c2ccc(NC(C)(C)CCO)nc2)C1 [Example 3.1, N-[(3S)-1-{6-[(4-Hydroxy-2-methylbutan-2-yl)amino]pyridine-3-carbonyl}pyrrolidin-3-yl]-N-methylacetamide]
